Data on 8 compounds can be found in patent US4931475A, “Cholagogue and/or gallstone solubilizer” (Hiya Pharmaceutical Co., Ltd., priority 1985, dated 1990).

Series [1] deals with secretion of bile. The series can be described thus: Activity on the secretion of bile, intraduodenal administration. To be noted: 5 hours. The class given is in vivo, Male Wister rats. The protocol:
A. Intraduodenal administration
Male Wister rats weighing 200 to 250 g were used, ten rats in each group. Each rat was fasted for 6 to 8 hours, and was thereafter fastened as laid on its back to a fixed table under ethereal anesthesia. The abdomen was cut open along the midline. A polyethylene tube was inserted into and attached to the common bile duct. The rat was then allowed to stand for a period of time (1 hour) to assure stabilized flow of bile. The amount of bile flowing out for the following period of 30 minutes was taken as 100 to serve as a control amount for the subsequent flow of bile.
Next, the drug to be tested was intraduodenally administered to the rat, and the amount of bile flowing out from the polyethylene tube dropwise was measured over a period of 5 hours. The amount was measured for every 30-minute period of the first 2 hours after the administration of the drug and then for every one-hour period. Sodium dehydrocholate, bile acid preparation serving as a known cholagogue, was used as a control drug.
The dose was 200 mg/kg (weight of rat) for bornyl glucoside, or 100 mg (drug)/kg (weight of rat) for other borneols and sodium dehydrocholate. The drugs were used as suspended in 4% aqueous solution of gum arabic. Experimental results

Another series has as its system solids weight of bile. The series can be described thus: Variations in the weight of solids in discharged bile. The class given is in vivo, rats. The settings on record: intraduodenal, 100 mg/kg, 5 hours, pre-administration 30 minutes = 100. The protocol:
A. Variations in the weight of solids in discharged bile
The bile portions obtained from the bile secretion experiment (1)-A by intraduodenal administration were collected respectively for the observation periods. A quantity of each bile portion was freeze-dried, and the solids weight was measured to determine the variations in the solids weight of bile over the 5-hour period. The solids weight of bile obtained during the 30-minute period before the administration of the test drug, e.g. (+)-borneol, was calculated as 100.

The test system of series [2] is cholesterol content of bile. The series can be described thus: Variations in the cholesterol content of bile (Cholesterol CII-Test Wako). The settings on record: intraduodenal, 100 mg/kg, first one-hour period, pre-administration 30 minutes = 100. The class given is in vivo, rats. The procedure: (§1) B. Variations in the phospholipid and cholesterol contents of bile
(§2) Portions of the bile obtained during the first one-hour period of measurement in the bile secretion experiment (1)-A by intraduodenal administration were tested for phospholipid using Phospholipid B-Test Wako (enzyme method, Wako Pure Chemical Industries Ltd.) and for cholesterol using Cholesterol CII-Test Wako measuring kit(COD-p-chlorophenol color development method, Wako Pure Chemical Industries Ltd.). For the quantitative determination of phospholipid and cholesterol, a blank test was conducted, and a calibration curve prepared in advanced was used. The phospholipid and cholesterol contents of the bile flowing out during the period of 30 minutes before the administration of the test drug were taken as 100.

For series [3] the following is noted: naturally occurring, used in oriental medicine as "Ryuno"; cited from earlier work.
Series [4] has as its system phospholipid content of bile. The series can be described thus: Variations in the phospholipid content of bile (Phospholipid B-Test Wako). To be noted: intraduodenal, 100 mg/kg, first one-hour period, pre-administration 30 minutes = 100. The format is in vivo, rats. The protocol: as §1, §2
The subject of series [5] is secretion of bile. The series is described as follows: Activity on the secretion of bile, oral administration. The class given is in vivo, rats. The settings on record: 5 hours. The procedure: B. Oral Administration As in the case of intraduodenal administration, the drug to be tested was orally administered to rats each having a polyethylene tube attached to the common bile duct, and the amount of bile flowing out was observed over a period of 5 hours.

Another series is described as follows: Acute toxicity test. The settings on record: mouse, in vivo; oral, mice, 7 days, Litchfield-Wilcoxon method, 95% reliability limit. Details: species or system male dd-Y mice. The protocol:
The drug to be tested was orally given to male dd-Y mice weighing about 20 g, ten mice in each group. The mice were thereafter observed for 7 days to determine the LD50 from the number of resulting deaths. During the 7-day observation period, the animals were allowed free access to diets and water. The LD50 was determined according to the Litchfield-Wilcoxon method.

In series [6] the test system is bile acid contents of bile. The series is described as follows: Variations in bile acid contents of bile (high-speed liquid chromatography). To be noted: intraduodenal, 100 mg/kg, first one-hour period, pre-administration 30 minutes = 100. The class given is in vivo, rats. From the text: C. Variations in bile acid contents of bile
Each portion of bile obtained during the first one-hour period of measurement in the foregoing bile secretion experiment (1)-A by intraduodenal administration was partly collected, then diluted 40-fold with freshly distilled methanol and thereafter filtered with use of a 0.45-micron membrane filter (product of Toyo Roshi). The filtrate was subjected to high-speed liquid chromatography according to the method of Okuyama S. et al., Chemistry Letters, p 1443 (1979). The bile acid contents of the bile flowing out during each measurement period were determined with reference to calibration curves prepared in advance for cholic acid, ursodeoxycholic acid, chenodeoxycholic acid and deoxycholic acid, and also for glycine conjugates and taurine conjugates of these acids. The total bile acid content was determined from the results. The bile acid contents and the total bile acid content of the bile flowing out during the period of 30 minutes before the administration of the test drug were taken as 100.

For `CC1(C)[C@@H]2CC[C@@]1(C)[C@@H](O)C2` (relative stereo) [(±)-borneol], the “cholagogic effect (amount of bile flowing out)” value (from here on “cholagogic effect”) with secretion of bile [1] (100 mg/kg) is on record as “also had a cholagogic effect”.

For `CC1(C)[C@@H]2CC[C@@]1(C)[C@H](O)C2` (relative stereo) [isoborneol], in the series on secretion of bile [1] (100 mg/kg), the “cholagogic effect” value is reported as “also had a cholagogic effect”.

A word on the LD50: it is the dose expected to kill half of the subjects tested. A higher LD50 goes with lower toxicity. For the compound `CC1(C)[C@@H]2CC[C@@]1(C)[C@@H](O)C2` [(+)-borneol], in the series with solids weight of bile, the “variations in the solids weight of bile” value is on record as “sustained effect to increase the amount of biliary constituents”. In addition, in series [2], the “cholesterol content of bile” value is “approximately at the same level as those of the normal bile”. Further, the “empirically known pharmacological activities” value in series [3] was “analgesic, anti-inflammatory, sedative and anti-palpitation effects and central depressant activity”. Besides, the “phospholipid content of bile” value in series [4] was “approximately at the same level as those of the normal bile”. Also, the “cholagogic effect” value in the series with secretion of bile [5] is “more sustained greater cholagogic effect than the control drug”. Besides, the “cholagogic effect” value in the series on secretion of bile [1] (100 mg/kg) is “sustained great cholagogic effect over the entire observation period of 5 hours”. In “Acute toxicity test”, this compound had an LD50 at 168 h of no less than 10000 mg/kg. Also, in series [6], the “bile acid contents of bile” value is “secretion of remarkably increased amounts of chenodeoxylic acid and like bile acids”; the “total bile acid content of bile” value was “remarkable increase in the total bile acid content”.

As to `CC1(C)[C@H]2CC[C@]1(C)[C@H](O)C2` [(-)-borneol], the “cholagogic effect” value in the series on secretion of bile [1] (100 mg/kg) was “also had a cholagogic effect”.

`CC(=O)OC1CC2CCC1(C)C2(C)C` (centres unmarked) [bornyl acetate]: the “cholagogic effect” value with secretion of bile [1] (100 mg/kg) is “also had a cholagogic effect”.

As to `CC1(C)C2CCC1(C)C(OC1O[C@H](CO)[C@@H](O)[C@H](O)[C@H]1O)C2` (some centres unmarked) [bornyl glucoside], in the series on secretion of bile [1] (200 mg/kg (bornyl glucoside)), the “cholagogic effect” value is “also had a cholagogic effect”.

On to `CC(=O)O[C@@H]1C[C@H]2CC[C@]1(C)C2(C)C` [isobornyl acetate], for which the “cholagogic effect” value in the series with secretion of bile [1] (100 mg/kg) is “also had a cholagogic effect”.

Regarding `C[C@H](CCC(=O)O)[C@H]1CC[C@H]2[C@@H]3C(=O)C[C@@H]4CC(=O)CC[C@]4(C)[C@H]3CC(=O)[C@]12C` [sodium dehydrocholate, reference compound], in series [2], the “cholesterol content of bile” value was “tendency for the phospholipid and cholesterol contents of bile to increase”. In addition, in series [4], the “phospholipid content of bile” value was “tendency for the phospholipid and cholesterol contents of bile to increase”. For the same compound, in the series with secretion of bile [1] (100 mg/kg), the “cholagogic effect” value is “transient great cholagogic effect 30 minutes after the administration”. Also, the LD50 at 168 h in “Acute toxicity test” worked out at 2500 mg/kg. Besides, in series [6], the “bile acid contents of bile” value is “slight transient tendency to produce increased amounts of bile acids including deoxycholic acid only 30 minutes after the administration”.
